US20090208597A1, “HEAT PROCESSED VEGETABILIC FIBER PREPARATION AND ITS USE AS INHIBITOR OF THE EFFECTS OF CARCINOGENIC SUBSTANCES IN HUMANS OR ANIMALS” (ESSENTYS AB, priority 2006, published 2009)

Experiments:
BALB mice = experiment: Potato fiber supplemented diet in acryl amide exposed mice, histomorphology of intestine and liver (Example 1); format: in vivo; settings: acryl amide added to the drinking water; 90 days
Procedure: The main aim of these studies was to see if a potato fiber supplemented diet had any effect on acryl amide induced cancer development in mice.
Seventy five 9-weeks old male and seventy five 7 to 9 weeks old female BALB mice (Laboratory), weighing about 20 g, were used. Mice were housed ten per box of the same sex. Solid food and water were allowed in sufficient quantities. The animals were kept in an animal house where the humidity and temperature were controlled and where a 12 h light period was kept. The experiment has been reviewed and approved by Lund University ethic committee, application M140-03.
2/ Labodiet MLF 2% and potato fiber preparation (Povex®). The receipt of this food/feed is based on the control food/feed. The food/feed was enriched with 2% of Povex®.
3/ Labodiet MLF 2% heated potato fiber preparation (Povex®). […]
It was found suitable to use the commercial (Sigma-Aldrich, St Louis, Mo.) acryl amide for electrophoresis in the form of powder (minimum 99%). […] Before the beginning of the experiment, the water consumption during 24 h of 5 groups of mice was measured. […] This consumption was used to calculate the concentration of the two doses of acryl amide: The high dose was calculated from 2 mg/day/kg b.w. and the low dose from 0.1 mg/day/kg b.w. […] The volume left in the bottle was measured and listed in a table in order to follow the consumption of acryl amide through the water. […]

[1] = test system: small intestine of male BALB mice; experiment: Povex in food of mice treated with acrylamide, histomorphometry of small intestine (Example 4); format: in vivo
Procedure: The aim of this study was to investigate if regular and heat Povex can protect small intestine against acrylamide toxic influence. The point was to establish what histological changes can acrylamide cause to small intestine tissue and if Povex can reverse or decrease these possible changes.
Three months experiment was performed on males BALB mince. Two doses of acrylamide (2 mg/day/kg b.w., and 0.1 mg/day/kg b.w.) in drinking water and two types of Povex heated (Treated) and normal (Untreated) added to food were provided for animals.
Histology and histomorphometry of small intestine was performed. The examined parameters were: fractal dimension of small intestine, mitosis inside crypts and apoptosis count per mm^2 of tissue.
Seventy-five 9-weeks old male and seventy-five 7 to 9 weeks old female BALB mice (Laboratory), weighing about 20 g, were used in whole experiment. Mice were housed ten per box of the same sex. This part of experiment and analysis obtained from is made on twenty eight male BALB mice.
Three types of formulated mixtures were manufactured: • Labodiet MLF control. The receipt of this food is based on the energy needs according to the Polish norm for feeding domestic animals. • Labodiet MLF 2% n Povex. The receipt of this food is based one the control one. The food was enriched with 2% of Povex. • Labodiet MLF 2% praz Povex. The receipt of this food is based one the control one. The food was enriched with 2% of heated Povex till 160° C.
Before the beginning of the experiment, we measured water consumption in 24 hours of 5 groups of mice. The average of daily-consumption was 10 mL/day/kg b.w. This consumption was used to calculate the concentration of the two doses of acrylamide: The high dose was calculated from 2 mg/day/kg b.w. and the low dose from 0.1 mg/day/kg b.w. The first dilution of acrylamide in tap water was made directly with the powder and 3 L of both concentrations were prepared. […] The volume left in the bottle was measured and put in a table to follow the consumption of acrylamide through the water. […]

Structure (SMILES): C=CC(N)=O [Acryl amide, acryl amide]
- histomorphological parameters of the intestine and liver (BALB mice): affected a majority of the measured histomorphological parameters
- number of mitosis inside small intestine crypt ([1]; small and large dose of AA with standard food vs control group): significant decrease
- number of apoptosis/mm^2 in small intestine tissue ([1]; standard food + large or low dose of AA): elevated number of apoptotic cells
- fractal dimension of small intestine mucosa ([1]; standard food and low dose of AA (0.1 mg) vs control group): difference between control group and animals getting standard food and low dose of AA
